The assay deals with TNF-α. Put plainly: Cell-based TNF-α inhibition assay in LPS-induced PBMCs (Meso Scale). Particulars: PBMC, PBMCs pretreated 1 h, LPS 100 ng/mL 18-24 h, relative to stimulated DMSO control; for inhibition at 1 µM: compound concentration 1 μM; for inhibition at 0.1 µM: compound concentration 0.1 μM. As for the experimental part:
Frozen primary blood mononuclear cells (PBMCs) were quick thawed, washed once with RPMI 1640 media supplemented with 10% fetal bovine serum, 1% penicillin, and 1% streptomycin, and plated in a 96 well plate at 200,000 cells per well. The cells were pretreated with DMSO only as a control or a compound for 1 h, and then induced with LPS (lipopolysaccharide) (100 ng/mL) for 18-24 h. The supernatant was analyzed for TNF-α using the Meso Scale assay. Compound activity was determined as a percentage of the stimulated DMSO control. The results are summarized in Table 1, where A represents a percent inhibition value ≥60%; B represents a percent inhibition value <60% and ≥40%; C represents a percent inhibition value <40% and >20%; and D represents a single percent inhibition value <20%.

SMILES strings stand for the structures.

For orientation: inhibition means the drop in the measured response relative to a control, in per cent. Turning to `CCOc1cc([C@@H](CS(C)(=O)=O)N2C(=O)c3cc(C#CCCCCCN4CCC(c5cc(F)cc6c5CN(C5CCC(=O)NC5=O)C6=O)CC4)cc(NC(C)=O)c3C2=O)ccc1OC` (stereo partly drawn) [Compound B47, N-(6-(7-(4-(2-(2,6-dioxopiperidin-3-yl)-6-fluoro-1-oxoisoindolin-4-yl)piperidin-1-yl)hept-1-yn-1-yl)-2-((S)-1-(3-ethoxy-4-methoxyphenyl)-2-(methylsulfonyl)ethyl)-1,3-dioxoisoindolin-4-yl)acetamide], the inhibition at 1 µM is at least 60%.

Turning to `CCOc1cc([C@@H](CS(C)(=O)=O)N2C(=O)c3cccc(NC(=O)COCCOCCOCCOCCNc4cccc5c4C(=O)N(C4CCC(=O)NC4=O)C5=O)c3C2=O)ccc1OC` (stereo partly drawn) [Compound B48, 14-((2-(2,6-Dioxopiperidin-3-yl)-1,3-dioxoisoindolin-4-yl)amino)-N-(2-((S)-1-(3-ethoxy-4-methoxyphenyl)-2-(methylsulfonyl)ethyl)-1,3-dioxoisoindolin-4-yl)-3,6,9,12-tetraoxatetradecan-1-amide], the inhibition at 1 µM was at least 60%.

Consider `COc1ccc(C2CNC(=O)C2)cc1OCCCCCCCN1CCC(c2cc(F)cc3c2CN(C2CCC(=O)NC2=O)C3=O)CC1` (stereo not drawn) [Compound B53, 3-(6-Fluoro-4-(1-(7-(2-methoxy-5-(5-oxopyrrolidin-3-yl)phenoxy)heptyl)piperidin-4-yl)-1-oxoisoindolin-2-yl)piperidine-2,6-dione], for which the inhibition at 1 µM was below 20%.

Consider `COc1ccc(N2C(=O)c3ccc(NCCCCCCCN4CCC(c5cc(F)cc6c5CN(C5CCC(=O)NC5=O)C6=O)CC4)cc3C2=O)cc1OC1CCCC1` (stereo not drawn) [Compound B54, 2-(3-(Cyclopentyloxy)-4-methoxyphenyl)-5-((7-(4-(2-(2,6-dioxopiperidin-3-yl)-6-fluoro-1-oxoisoindolin-4-yl)piperidin-1-yl)heptyl)amino)isoindoline-1,3-dione], for which the inhibition at 1 µM fell in the range of 20 to 40%.

For `COc1ccc(C2CNC(=O)C2)cc1OCCCCCCCN1CCC(c2cc3c(cc2F)C(=O)N(C2CCC(=O)NC2=O)C3)CC1` (stereo not drawn) [Compound B55, 3-(6-Fluoro-5-(1-(7-(2-methoxy-5-(5-oxopyrrolidin-3-yl)phenoxy)heptyl)piperidin-4-yl)-1-oxoisoindolin-2-yl)piperidine-2,6-dione], the inhibition at 1 µM was 20 to 40%.

For `COc1ccc(N2Cc3ccc(NCCCCCCCN4CCC(c5cc(F)cc6c5CN(C5CCC(=O)NC5=O)C6=O)CC4)cc3C2=O)cc1OC1CCCC1` (stereo not drawn) [Compound B56, 3-(4-(1-(7-((2-(3-(Cyclopentyloxy)-4-methoxyphenyl)-3-oxoisoindolin-5-yl)amino)heptyl)piperidin-4-yl)-6-fluoro-1-oxoisoindolin-2-yl)piperidine-2,6-dione], the inhibition at 1 µM is 40 to 60%.

Take `O=C1CC(c2ccc(OCCCCCCCN3CCC(c4cc(F)cc5c4CN(C4CCC(=O)NC4=O)C5=O)CC3)c(OC3CCCC3)c2)CN1` (stereo not drawn) [Compound B57, 3-(4-(1-(7-(2-(Cyclopentyloxy)-4-(5-oxopyrrolidin-3-yl)phenoxy)heptyl)piperidin-4-yl)-6-fluoro-1-oxoisoindolin-2-yl)piperidine-2,6-dione]: the inhibition at 1 µM was below 20%.

For `Nc1ccc2c(c1)C(=O)N(c1ccc(OCCCCCCCN3CCC(c4cc(F)cc5c4CN(C4CCC(=O)NC4=O)C5=O)CC3)c(OC3CCCC3)c1)C2=O` (stereo not drawn) [Compound B58, 5-Amino-2-(3-(cyclopentyloxy)-4-((7-(4-(2-(2,6-dioxopiperidin-3-yl)-6-fluoro-1-oxoisoindolin-4-yl)piperidin-1-yl)heptyl)oxy)phenyl)isoindoline-1,3-dione], the inhibition at 1 µM is below 20%.

Consider `O=C1CCC(N2Cc3c(cc(F)cc3C3CCN(CCCCCCCOc4ccc(N5C(=O)c6ccccc6C5=O)cc4OC4CCCC4)CC3)C2=O)C(=O)N1` (stereo not drawn) [Compound B59, 2-(3-(Cyclopentyloxy)-4-((7-(4-(2-(2,6-dioxopiperidin-3-yl)-6-fluoro-1-oxoisoindolin-4-yl)piperidin-1-yl)heptyl)oxy)phenyl)isoindoline-1,3-dione], for which the inhibition at 1 µM was below 20%.

Consider `COc1ccc(N2Cc3ccc(N)cc3C2=O)cc1OCCCCCCCN1CCC(c2cc(F)cc3c2CN(C2CCC(=O)NC2=O)C3=O)CC1` (stereo not drawn) [Compound B60, 3-(4-(1-(7-(5-(6-Amino-1-oxoisoindolin-2-yl)-2-methoxyphenoxy)heptyl)piperidin-4-yl)-6-fluoro-1-oxoisoindolin-2-yl)piperidine-2,6-dione], for which the inhibition at 1 µM fell in the range of 20 to 40%.

Take `O=C1CCC(N2Cc3cc(C4CCN(CCCCCCCOc5cc(C(=O)Nc6c(Cl)cncc6Cl)ccc5OC(F)F)CC4)c(F)cc3C2=O)C(=O)N1` (stereo not drawn) [Compound B61, N-(3,5-Dichloropyridin-4-yl)-4-(difluoromethoxy)-3-((7-(4-(2-(2,6-dioxopiperidin-3-yl)-6-fluoro-1-oxoisoindolin-5-yl)piperidin-1-yl)heptyl)oxy)benzamide]: the inhibition at 0.1 µM was at least 60% and the inhibition at 1 µM was at least 60%.

On to `CCOc1cc([C@@H](CS(C)(=O)=O)N2C(=O)c3cccc(NC(=O)CCCCCCCCC(=O)N[C@H](C(=O)N4C[C@H](O)C[C@H]4C(=O)NCc4ccc(-c5scnc5C)cc4)C(C)(C)C)c3C2=O)ccc1OC` [Compound B63, N^1-(2-((S)-1-(3-Ethoxy-4-methoxyphenyl)-2-(methylsulfonyl)ethyl)-1,3-dioxoisoindolin-4-yl)-N^10—((S)-1-((2S,4R)-4-hydroxy-2-((4-(4-methylthiazol-5-yl)benzyl)carbamoyl)pyrrolidin-1-yl)-3,3-dimethyl-1-oxobutan-2-yl)decanediamide], for which the inhibition at 0.1 µM was at least 60% and the inhibition at 1 µM was at least 60%.

Turning to `CCOc1cc([C@@H](CS(C)(=O)=O)N2C(=O)c3cccc(NC(=O)CCOCc4ccc(COCCNc5cccc6c5C(=O)N(C5CCC(=O)NC5=O)C6=O)cc4)c3C2=O)ccc1OC` (stereo partly drawn) [Compound B64, 3-((4-((2-((2-(2,6-Dioxopiperidin-3-yl)-1,3-dioxoisoindolin-4-yl)amino)ethoxy)-methyl)benzyl)oxy)-N-(2-((S)-1-(3-ethoxy-4-methoxyphenyl)-2-(methylsulfonyl)ethyl)-1,3-dioxoisoindolin-4-yl)propanamide], the inhibition at 0.1 µM is at least 60% and the inhibition at 1 µM was at least 60%.

Regarding `COc1ccc(N2C(=O)c3ccsc3C2=O)cc1OCCCCCCCN1CCC(c2cc(F)cc3c2CN(C2CCC(=O)NC2=O)C3=O)CC1` (stereo not drawn) [Compound B65, 5-(3-((7-(4-(2-(2,6-Dioxopiperidin-3-yl)-6-fluoro-1-oxoisoindolin-4-yl)piperidin-1-yl)heptyl)oxy)-4-methoxyphenyl)-4H-thieno[2,3-c]pyrrole-4,6(5H)-dione], the inhibition at 1 µM was below 20%.

Take `COc1ccc(C2CNC(=O)C2)cc1OCCCCCCCNc1cccc2c1C(=O)N(C1CCC(=O)NC1=O)C2=O` (stereo not drawn) [Compound B66, 2-(2,6-Dioxopiperidin-3-yl)-4-((7-(2-methoxy-5-(5-oxopyrrolidin-3-yl)phenoxy)-heptyl)amino)isoindoline-1,3-dione]: the inhibition at 1 µM is at least 60%.

On to `COc1ccc(C2CNC(=O)C2)cc1OCCCCCCCCC(=O)N[C@H](C(=O)N1C[C@H](O)C[C@H]1C(=O)NCc1ccc(-c2scnc2C)cc1)C(C)(C)C` (stereo partly drawn) [Compound B67, (2S,4R)-4-Hydroxy-1-((2S)-2-(9-(2-methoxy-5-(5-oxopyrrolidin-3-yl)phenoxy)-nonanamido)-3,3-dimethylbutanoyl)-N-(4-(4-methylthiazol-5-yl)benzyl)pyrrolidine-2-carboxamide], for which the inhibition at 1 µM is at least 60%.

`Cc1ncsc1-c1ccc(CNC(=O)[C@@H]2C[C@@H](O)CN2C(=O)[C@@H](NC(=O)CCCCCCCCOc2cc(C(=O)Nc3c(Cl)cncc3Cl)ccc2OC(F)F)C(C)(C)C)cc1` [Compound B68, (2S,4R)-1-((S)-2-(9-(5-((3,5-Dichloropyridin-4-yl)carbamoyl)-2-(difluoromethoxy)phenoxy)nonanamido)-3,3-dimethylbutanoyl)-4-hydroxy-N-(4-(4-methylthiazol-5-yl)benzyl)pyrrolidine-2-carboxamide]: the inhibition at 0.1 µM was at least 60% and the inhibition at 1 µM is at least 60%.

Turning to `CCOc1cc([C@@H](CS(C)(=O)=O)N2C(=O)c3cc(CCCN4CCC(c5cc(F)cc6c5CN(C5CCC(=O)NC5=O)C6=O)CC4)cc(NC(C)=O)c3C2=O)ccc1OC` (stereo partly drawn) [Compound B69, N-(6-(3-(4-(2-(2,6-Dioxopiperidin-3-yl)-6-fluoro-1-oxoisoindolin-4-yl)piperidin-1-yl)propyl)-2-((S)-1-(3-ethoxy-4-methoxyphenyl)-2-(methylsulfonyl)ethyl)-1,3-dioxoisoindolin-4-yl)acetamide], the inhibition at 0.1 µM was in the range of 40 to 60% and the inhibition at 1 µM is at least 60%.

In the case of `CCOc1cc([C@@H](CS(C)(=O)=O)N2C(=O)c3cccc(NC(=O)CCCCCCCCNCc4ccc(OCc5scc6c5CN(C5CCC(=O)NC5=O)C6=O)cc4)c3C2=O)ccc1OC` (stereo partly drawn) [Compound B70, 9-((4-((5-(2,6-Dioxopiperidin-3-yl)-4-oxo-5,6-dihydro-4H-thieno[3,4-c]pyrrol-1-yl)methoxy)benzyl)amino)-N-(2-((S)-1-(3-ethoxy-4-methoxyphenyl)-2-(methylsulfonyl)ethyl)-1,3-dioxoisoindolin-4-yl)nonanamide], the inhibition at 0.1 µM is at least 60% and the inhibition at 1 µM is at least 60%.

Consider `CCOc1cc([C@@H](CS(C)(=O)=O)N2C(=O)c3cccc(NC(=O)CCCCCCCCCCCNc4cccc5c4C(=O)N(C4CCC(=O)NC4=O)C5=O)c3C2=O)ccc1OC` (stereo partly drawn) [Compound B71, 12-((2-(2,6-Dioxopiperidin-3-yl)-1,3-dioxoisoindolin-4-yl)amino)-N-(2-((S)-1-(3-ethoxy-4-methoxyphenyl)-2-(methylsulfonyl)ethyl)-1,3-dioxoisoindolin-4-yl)dodecanamide], for which the inhibition at 0.1 µM is at least 60% and the inhibition at 1 µM is at least 60%.

The values above are taken from patent US12522612B2, “PDE4 inhibitors, pharmaceutical compositions, and therapeutic applications” (BioTheryX, Inc., priority 2019, dated 2026).
